From patent US20020019387A1, “Vitronectin receptor antagonist” (SmithKline Beecham Corporation, priority 1997, published 2002)

Target: T1, αvβ3 (vitronectin receptor) (Homo sapiens, UniProt P05106+P06756)
T1 construct: Human placenta or human platelet αvβ3 (0.1-0.3 mg/mL) in buffer T; from tissue; host or cells: human placenta or human platelets
Assay: Solid-Phase [3H]-SK&F-107260 Binding to αvβ3
Conditions: read-out: concentration at which the compound inhibits vitronectin binding to SK&F 107260
Procedure: Solid-Phase [^3H]-SK&F-107260 Binding to αvβ3: Human placenta or human platelet αvβ3 (0.1-0.3 mg/mL) in buffer T (containing 2 mM CaCl2 and 1% octylglucoside) was diluted with buffer T containing 1 mM CaCl2, 1 mM MnCl2, 1 mM MgCl2 (buffer A) and 0.05% NaN3, and then immediately added to 96-well ELISA plates (Corning, New York, N.Y.) at 0.1 mL per well. 0.1-0.2 μg of αvβ3 was added per well. The plates were incubated overnight at 4° C. At the time of the experiment, the wells were washed once with buffer A and were incubated with 0.1 mL of 3.5% bovine serum albumin in the same buffer for 1 hr at room temperature. Following incubation the wells were aspirated completely and washed twice with 0.2 mL buffer A. […]
The plates were incubated for 1 hr at room temperature. […] The receptors were solubilized with 0.1 mL of 1% SDS and the bound [^3H]-SK&F-107260 was determined by liquid scintillation counting with the addition of 3 mL Ready Safe in a Beckman LS Liquid Scintillation Counter, with 40% efficiency. Nonspecific binding of [^3H]-SK&F-107260 was determined in the presence of 2 μM SK&F-107260 and was consistently less than 1% of total radioligand input. […] The Ki (dissociation constant of the antagonist) was calculated according to the equation: Ki=IC50/(1+L/Kd), where L and Kd were the concentration and the dissociation constant of [^3H]-SK&F-107260, respectively.

T1 sequence (P06756 31-889 limits assumed): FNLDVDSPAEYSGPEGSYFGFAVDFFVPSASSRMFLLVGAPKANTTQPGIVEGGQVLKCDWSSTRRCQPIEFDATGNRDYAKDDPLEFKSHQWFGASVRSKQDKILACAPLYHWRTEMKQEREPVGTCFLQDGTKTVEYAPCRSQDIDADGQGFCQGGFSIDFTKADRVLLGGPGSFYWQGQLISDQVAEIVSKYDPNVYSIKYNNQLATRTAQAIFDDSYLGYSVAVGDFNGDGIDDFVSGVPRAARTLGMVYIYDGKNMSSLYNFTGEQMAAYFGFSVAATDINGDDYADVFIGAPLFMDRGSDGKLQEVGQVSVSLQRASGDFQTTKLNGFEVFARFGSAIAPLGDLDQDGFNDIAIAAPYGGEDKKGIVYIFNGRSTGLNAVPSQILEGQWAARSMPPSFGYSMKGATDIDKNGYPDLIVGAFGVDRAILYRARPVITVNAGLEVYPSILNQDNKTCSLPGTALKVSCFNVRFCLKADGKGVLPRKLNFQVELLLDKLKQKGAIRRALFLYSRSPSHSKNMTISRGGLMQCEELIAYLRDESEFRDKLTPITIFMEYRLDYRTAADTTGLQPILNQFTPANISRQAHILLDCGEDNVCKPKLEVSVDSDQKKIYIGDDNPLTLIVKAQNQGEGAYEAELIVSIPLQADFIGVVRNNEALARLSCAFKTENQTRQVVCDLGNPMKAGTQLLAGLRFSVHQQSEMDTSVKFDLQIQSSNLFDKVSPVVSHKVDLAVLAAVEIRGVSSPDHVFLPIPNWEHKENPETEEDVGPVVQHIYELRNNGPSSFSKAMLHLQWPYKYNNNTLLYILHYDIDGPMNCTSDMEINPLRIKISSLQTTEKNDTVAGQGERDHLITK
T1 sequence (P06756 891-1048 partner limits assumed): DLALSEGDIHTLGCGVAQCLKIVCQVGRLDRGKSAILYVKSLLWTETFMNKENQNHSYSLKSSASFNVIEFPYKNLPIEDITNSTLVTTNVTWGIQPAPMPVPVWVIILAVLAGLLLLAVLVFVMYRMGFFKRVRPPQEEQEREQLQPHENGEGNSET
T1 sequence (P05106 27-788): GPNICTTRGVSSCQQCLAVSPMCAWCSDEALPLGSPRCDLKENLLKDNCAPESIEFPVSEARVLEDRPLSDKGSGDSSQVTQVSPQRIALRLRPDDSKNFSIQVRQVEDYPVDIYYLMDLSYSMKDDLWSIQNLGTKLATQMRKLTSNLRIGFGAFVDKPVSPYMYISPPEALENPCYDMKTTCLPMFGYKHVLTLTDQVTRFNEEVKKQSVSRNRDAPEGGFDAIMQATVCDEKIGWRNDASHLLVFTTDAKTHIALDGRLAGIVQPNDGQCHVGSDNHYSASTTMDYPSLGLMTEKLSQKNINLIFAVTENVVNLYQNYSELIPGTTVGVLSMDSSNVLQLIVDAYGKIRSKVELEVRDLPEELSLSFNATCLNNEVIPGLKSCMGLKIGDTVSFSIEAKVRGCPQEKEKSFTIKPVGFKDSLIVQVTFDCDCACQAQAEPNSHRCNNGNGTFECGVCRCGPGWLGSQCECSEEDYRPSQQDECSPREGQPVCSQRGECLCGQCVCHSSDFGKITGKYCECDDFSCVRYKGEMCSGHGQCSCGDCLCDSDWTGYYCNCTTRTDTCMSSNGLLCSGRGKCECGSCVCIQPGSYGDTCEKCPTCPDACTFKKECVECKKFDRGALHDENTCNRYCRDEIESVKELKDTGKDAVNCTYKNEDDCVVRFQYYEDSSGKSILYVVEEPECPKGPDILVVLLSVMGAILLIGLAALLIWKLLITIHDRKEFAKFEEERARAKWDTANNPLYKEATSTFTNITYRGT

## O=C(O)C[C@@H]1Cc2ccc(OCCCNc3ccccn3)cc2CN(Cc2ccc(F)c(F)c2F)C1=O [Example 1, (S)-3-oxo-8-[3-(pyridin-2-ylamino)-1-propyloxy]-2-(2,3,4-trifluorobenzyl)-2,3,4,5-tetrahydro-1H-2-benzazepine-4-acetic acid]
  IC50: ~3 nM
